Laboratory results: PubChem BioAssay AID248 (DTP/NCI, 2004)
Inconclusive results and toxic doses are left out. Cut-off read from the data, not from the text of the source: active = T/C of 150% or more; inactive = T/C below 125%. Peptide text beside a SMILES is read from it. * marks the point of attachment. Cbz = O=C(OCc1ccccc1)*

System: L1210 leukemia ip in BDF1 mice, survival T/C
Test: NCI In Vivo Anticancer Drug Screen. Data for tumor model L1210 Leukemia (intraperitoneal) in B6D2F1 (BDF1) mice
Conditions: endpoint: mean survival time, higher = longer survival
Summary of the method: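 Tumor cells were implanted, animals were treated, and survival was followed. The result divides the treated measurement by the vehicle-control measurement.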

[1] = dose: 100.0 mg/kg/injection, schedule: Q01DX009 (ip), vehicle: saline with Tween-80
[2] = dose: 200.0 mg/kg/injection, schedule: Q01DX009 (ip), vehicle: saline with Tween-80
[3] = dose: 400.0 mg/kg/injection, schedule: Q01DX009 (ip), vehicle: saline with Tween-80
[4] = dose: 25.0 mg/kg/injection, schedule: Q01DX009 (ip), vehicle: saline with Tween-80
[5] = dose: 50.0 mg/kg/injection, schedule: Q01DX009 (ip), vehicle: saline with Tween-80
[6] = dose: 100.0 mg/kg/injection, schedule: Q04DX003 (ip), vehicle: Klucel (hydroxypropylcellulose) (HPC)
[7] = dose: 200.0 mg/kg/injection, schedule: Q04DX003 (ip), vehicle: Klucel (hydroxypropylcellulose) (HPC)
[8] = dose: 400.0 mg/kg/injection, schedule: Q04DX003 (ip), vehicle: Klucel (hydroxypropylcellulose) (HPC)
[9] = dose: 100.0 mg/kg/injection, schedule: Q04DX002 (ip), vehicle: Klucel (hydroxypropylcellulose) (HPC)
[10] = dose: 200.0 mg/kg/injection, schedule: Q04DX002 (ip), vehicle: Klucel (hydroxypropylcellulose) (HPC)
[11] = dose: 400.0 mg/kg/injection, schedule: Q04DX002 (ip), vehicle: Klucel (hydroxypropylcellulose) (HPC)
[12] = dose: 100.0 mg/kg/injection, schedule: Q01DX009 (ip), vehicle: saline
[13] = dose: 200.0 mg/kg/injection, schedule: Q01DX009 (ip), vehicle: saline
[14] = dose: 400.0 mg/kg/injection, schedule: Q01DX009 (ip), vehicle: saline
[15] = dose: 100.0 mg/kg/injection, schedule: Q04DX003 (ip), vehicle: saline with Tween-80
[16] = dose: 200.0 mg/kg/injection, schedule: Q04DX003 (ip), vehicle: saline with Tween-80
[17] = dose: 400.0 mg/kg/injection, schedule: Q04DX003 (ip), vehicle: saline with Tween-80

Measured: T/C

CC(C)(C)C1CCS(=O)(=O)CC1.[Cl][Hg][Cl]
inactive: dose: 0.25 mg/kg/injection, schedule: Q01DX009 (ip), vehicle: saline 97 % of control | dose: 0.5 mg/kg/injection, schedule: Q01DX009 (ip), vehicle: saline 98 % of control | dose: 1.0 mg/kg/injection, schedule: Q01DX009 (ip), vehicle: saline 94 % of control

CC(C)c1ccc(/C=C/C(=O)c2ccc(F)cc2)cc1
inactive: [1] 90 % of control | dose: 100.0 mg/kg/injection, schedule: Q04DX002 (ip), vehicle: saline with Tween-80 97 % of control | [2] 90 % of control | dose: 200.0 mg/kg/injection, schedule: Q04DX002 (ip), vehicle: saline with Tween-80 86 % of control | [3] 93 % of control | dose: 400.0 mg/kg/injection, schedule: Q04DX002 (ip), vehicle: saline with Tween-80 97 % of control

C(=Nc1cnc2ccccc2c1)c1ccnc2ccccc12
inactive: dose: 50.0 mg/kg/injection, schedule: Q01DX001 (ip), vehicle: carboxymethylcellulose (CMC) 95 % of control | dose: 100.0 mg/kg/injection, schedule: Q01DX001 (ip), vehicle: carboxymethylcellulose (CMC) 104 % of control | dose: 200.0 mg/kg/injection, schedule: Q01DX001 (ip), vehicle: carboxymethylcellulose (CMC) 107 % of control | dose: 400.0 mg/kg/injection, schedule: Q01DX001 (ip), vehicle: carboxymethylcellulose (CMC) 95 % of control

CC1(NCCOC(=O)c2ccc(N)cc2)CCCCC1
inactive: dose: 75.0 mg/kg/injection, schedule: Q01DX001 (ip), vehicle: saline 100 % of control | dose: 150.0 mg/kg/injection, schedule: Q01DX001 (ip), vehicle: saline 100 % of control

CC1OC(=O)N(CCc2ccncc2)C1=O (configuration not stated)
inactive: dose: 100.0 mg/kg/injection, schedule: Q04DX002 (ip), vehicle: saline 93 % of control | dose: 200.0 mg/kg/injection, schedule: Q04DX002 (ip), vehicle: saline 93 % of control | dose: 400.0 mg/kg/injection, schedule: Q04DX002 (ip), vehicle: saline 97 % of control

COC(=O)c1ccc(Cl)c(Cl)c1
inactive: [4] 110 % of control | [5] 104 % of control | [1] 107 % of control | [2] 100 % of control | [3] 102 % of control

CC(=O)c1ccc(CC2CCC2)cc1
inactive: dose: 75.0 mg/kg/injection, schedule: Q01DX009 (ip), vehicle: Klucel (hydroxypropylcellulose) (HPC) 97 % of control | dose: 150.0 mg/kg/injection, schedule: Q01DX009 (ip), vehicle: Klucel (hydroxypropylcellulose) (HPC) 112 % of control | dose: 300.0 mg/kg/injection, schedule: Q01DX009 (ip), vehicle: Klucel (hydroxypropylcellulose) (HPC) 110 % of control

COc1ccc(/C=C/c2cccc[n+]2C)cc1
inactive: dose: 12.5 mg/kg/injection, schedule: Q01DX009 (ip), vehicle: Klucel (hydroxypropylcellulose) (HPC) 89 % of control | dose: 12.5 mg/kg/injection, schedule: Q04DX003 (ip), vehicle: Klucel (hydroxypropylcellulose) (HPC) 100 % of control | dose: 25.0 mg/kg/injection, schedule: Q01DX009 (ip), vehicle: Klucel (hydroxypropylcellulose) (HPC) 90 % of control | dose: 25.0 mg/kg/injection, schedule: Q04DX003 (ip), vehicle: Klucel (hydroxypropylcellulose) (HPC) 94 % of control | dose: 50.0 mg/kg/injection, schedule: Q04DX003 (ip), vehicle: Klucel (hydroxypropylcellulose) (HPC) 100 % of control

CCCc1cc(=O)[nH]c(=S)[nH]1
inactive: [6] 93 % of control | [7] 96 % of control | [8] 101 % of control

OC1(c2ccccc2)CCC1
inactive: dose: 62.0 mg/kg/injection, schedule: Q01DX009 (ip), vehicle: saline with Tween-80 91 % of control | dose: 125.0 mg/kg/injection, schedule: Q01DX009 (ip), vehicle: saline with Tween-80 99 % of control | dose: 250.0 mg/kg/injection, schedule: Q01DX009 (ip), vehicle: saline with Tween-80 97 % of control

CCOC(=O)c1c(C)c2c(n1C)CCCC2O (configuration not stated)
inactive: dose: 100.0 mg/kg/injection, schedule: Q04DX003 (ip), vehicle: carboxymethylcellulose (CMC) 101 % of control | dose: 200.0 mg/kg/injection, schedule: Q04DX003 (ip), vehicle: carboxymethylcellulose (CMC) 98 % of control | dose: 400.0 mg/kg/injection, schedule: Q04DX003 (ip), vehicle: carboxymethylcellulose (CMC) 95 % of control

O=C(Nc1cccnc1)Nc1ccc(Cl)c(Cl)c1
inactive: [6] 98 % of control | [7] 93 % of control | [8] 94 % of control

CNCC(=O)Nc1ccc(NC(=O)CNC)cc1
inactive: [9] 96 % of control | [10] 104 % of control

Cc1c(Cl)cccc1NC(=O)OC(C)C
inactive: [6] 106 % of control | [7] 97 % of control | [8] 97 % of control

COc1ccc(NC(=O)NC2CCCCC2)c(Cl)c1
inactive: [9] 97 % of control | [10] 102 % of control | [11] 94 % of control

OCC/C=C/CCCO
inactive: [12] 97 % of control | [13] 96 % of control | [14] 94 % of control

COc1ccc(C(C(C(C)=O)C(C)=O)C(C(C)=O)C(C)=O)cc1
inactive: [15] 100 % of control | [16] 93 % of control

O=C(O)CC1C=CCC1 (configuration not stated)
inactive: dose: 25.0 mg/kg/injection, schedule: Q04DX003 (ip), vehicle: saline 90 % of control

O=C1O/C(=C\c2ccccc2)C(O)=C1c1ccccc1
inactive: dose: 100.0 mg/kg/injection, schedule: Q01DX001 (ip), vehicle: saline with Tween-80 100 % of control

CC(=O)Cc1cc(C)nc(/N=C(\N)N2CCCCC2)n1
inactive: [9] 92 % of control | [10] 103 % of control | [11] 96 % of control

Cc1ccccc1N
inactive: [15] 101 % of control | [16] 103 % of control | [17] 95 % of control

O=C(CCCCCCCC(=O)Nc1cc(C2=NCCN2)cc(C2=NCCN2)c1)Nc1cc(C2=NCCN2)cc(C2=NCCN2)c1
inactive: dose: 12.0 mg/kg/injection, schedule: Q01DX Z (ip), vehicle: carboxymethylcellulose (CMC) 105 % of control

C=C(C)COB(OCC(=C)C)OCC(=C)C
inactive: [4] 100 % of control | [5] 105 % of control | [1] 94 % of control

O=C(NCCCl)NC1CCSc2ccccc21 (configuration not stated)
inactive: [15] 101 % of control | [16] 95 % of control

COc1ccc(NC(=O)CC(C)=O)cc1
inactive: dose: 100.0 mg/kg/injection, schedule: Q01DX001 (ip), vehicle: other 92 % of control | [15] 94 % of control | dose: 200.0 mg/kg/injection, schedule: Q01DX001 (ip), vehicle: other 97 % of control | [16] 100 % of control | dose: 400.0 mg/kg/injection, schedule: Q01DX001 (ip), vehicle: other 103 % of control | [17] 99 % of control

CC(NC(=O)OCc1ccccc1)C(=O)NC(CC(N)=O)C(=O)O (stereo not drawn) (Cbz-Ala-Asn-OH; configuration not given here)
inactive: dose: 25.0 mg/kg/injection, schedule: Q04DX002 (ip), vehicle: Klucel (hydroxypropylcellulose) (HPC) 95 % of control | dose: 50.0 mg/kg/injection, schedule: Q04DX002 (ip), vehicle: Klucel (hydroxypropylcellulose) (HPC) 95 % of control | [9] 95 % of control

C=C(Br)CNC(=O)CCCl
inactive: dose: 6.25 mg/kg/injection, schedule: Q01DX009 (ip), vehicle: other 109 % of control | dose: 12.5 mg/kg/injection, schedule: Q01DX009 (ip), vehicle: other 98 % of control | dose: 25.0 mg/kg/injection, schedule: Q01DX009 (ip), vehicle: other 102 % of control

COc1ccc(S(=O)(=O)O)cc1NC(=O)CC(=O)c1cccc([N+](=O)[O-])c1
inactive: dose: 100.0 mg/kg/injection, schedule: Q01DX001 (ip), vehicle: saline 97 % of control | dose: 200.0 mg/kg/injection, schedule: Q01DX001 (ip), vehicle: saline 95 % of control | dose: 400.0 mg/kg/injection, schedule: Q01DX001 (ip), vehicle: saline 100 % of control

CCOC(=O)CNC(=O)C(CSC(c1ccccc1)(c1ccccc1)c1ccccc1)NC(c1ccccc1)(c1ccccc1)c1ccccc1 (configuration not stated)
inactive: dose: 50.0 mg/kg/injection, schedule: Q01DX009 (ip), vehicle: saline 89 % of control | [12] 103 % of control | [13] 92 % of control | [14] 94 % of control

CCOC(=O)CC(C)(O)C1CC1 (configuration not stated)
inactive: [15] 98 % of control | [16] 96 % of control | [17] 98 % of control
